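Results reflect a 48-hour exposure of cells in 96-well plates to compound at five concentrations. TGI: total growth inhibition.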
These compounds were tested on COLO 205 colon (assay: DTP human tumour cell line panel, 48 h).
With `COC(=O)c1sc2ncc3c(c2c1N)CC(C)CC3` (stereo not given) the TGI was over 100 µM.
`Cc1cccc(NC(Nc2cccc(C)c2)=C(C(Cl)=C(Cl)Cl)[N+](=O)[O-])c1` showed a TGI of 28.3 µM.
`CC1=CCC[C@H]2[C@](C)(CC3=CC(=O)C4SCCSC4C3=O)[C@@H](C)CC[C@]12C` (stereo not given in full) showed a TGI of 35.9 µM.
Work on `C/C(=N\Nc1nc2ccccc2s1)c1cccnn1` yielded a TGI of over 100 µM.
With `COC(=O)C1=C(C(=O)OC)C2(C)CCC(=O)C1O2` (stereo not given) the TGI was over 10 µM.
`Nc1n[nH]c2ccccc12` showed a TGI of over 100 µM.
`COC(=O)[C@H]1C=C[C@H](OC2OC(COC(C)=O)C(OC(C)=O)C(OC(C)=O)C2OC(C)=O)n2c(=O)n(-c3ccccc3)c(=O)n21` (stereo not given in full) was tested, and the TGI was 3.6 µM.
`N/C(CSCCSC/C(N)=N/O)=N\O` was tested, and the TGI was over 100 µM.

Each compound was assayed on EKVX NSCLC (assay: DTP human tumour cell line panel, 48 h).
`CC(O)(C(=O)N(O)c1ccc(Cl)cc1)c1ccc(Cl)cc1` (stereo not given) gave a TGI of over 100 µM.
Work on `CC1(C)[C@@H]2C[C@H]1c1cnc(-c3ccccn3)cc1[C@H]2C(O)[C@@H]1c2cc(-c3ccccn3)ncc2[C@H]2C[C@@H]1C2(C)C` (stereo not given in full) yielded a TGI of 13.3 µM.
`CC1(C)OC(CCO)CN1C(=O)OCc1ccccc1` (stereo not given) gave a TGI of over 100 µM.
In the case of `COc1ccc(N2C(=O)C3c4[nH]c5ccccc5c4C4C(C)CCCC4C3C2=O)cc1` (stereo not given), the TGI is reported as over 100 µM.
In the case of `O=c1c(Cc2ccccc2)c(-c2ccccc2)[nH]n1C1=NCCN1`, the TGI is reported as over 100 µM.
In the case of `CCOC(=O)Cc1nn2c(=O)cc(C)nc2s1`, the TGI is reported as over 100 µM.
Compound `CCOC1NC(=O)c2ccccc21` (stereo not given) has a TGI of over 100 µM.
Work on `CCN(C(=O)N[C@H](C(=O)N[C@@H](C)C(=O)OC)C(C)C)c1ccccc1` yielded a TGI of over 100 µM.
`CCOC(=O)c1ccc(C(=O)/C(C(=O)OC(C)(C)C)=C2\CCCN2C)n1C` gave a TGI of over 100 µM.
`O=CN(O)CC(=O)O` gave a TGI of over 100 µM.
`OCC1OC(O[C@H]2CN3[C@H](O)[C@@H](O)[C@H](O)[C@H]3C2O)C(O)C(O)C1O` (stereo not given in full) showed a TGI of over 100 µM.
In the case of `CC1OC(n2cc(F)c(=O)[nH]c2=O)C(O[Si](C)(C)C(C)(C)C)C1O[Si](C)(C)C(C)(C)C` (stereo not given), the TGI is reported as 31.6 µM.
For `O=S1(=O)c2ccccc2NC(=S)N1c1ccccc1`, the TGI was over 100 µM.
Work on `COC(=O)C(CCSC)NC(=O)CSc1nnc(COc2ccc(Cl)cc2)n1-c1ccccc1` (stereo not given) yielded a TGI of 75.3 µM.
With `c1ccc(-c2ccc(N=NN3CCCC3)cc2)cc1` the TGI was over 100 µM.
For `COn1cc(CO)c2ccccc21`, the TGI was over 100 µM.
`COc1cc2nc(-c3c(F)cccc3F)n(Cc3c(F)cccc3F)c2cc1Cc1c(F)cccc1F` showed a TGI of over 100 µM.
In the case of `O=C(/C=C1\C[C@H]2C=Nc3ccccc3C(=O)N2C1)NCCCCCNC(=O)/C=C1\C[C@H]2C=Nc3ccccc3C(=O)N2C1`, the TGI is reported as 38.5 µM.
Work on `CC[P+](C#Cc1ccccc1)(c1ccccc1)c1ccccc1` yielded a TGI of 11.9 µM.
In the case of `CC(C)Cc1c(C#N)c(C#N)c(N)n1Cc1ccccc1`, the TGI is reported as over 100 µM.
`NS(=O)(=O)c1nnc(NSc2ccc([N+](=O)[O-])cc2)s1` showed a TGI of over 100 µM.
For `CC(C)(C)c1ccc2c(c1)OCc1n[nH]c(n1)COc1cc(C(C)(C)C)ccc1OCCOCCO2`, the TGI was 17.7 µM.
In the case of `O=C(CN=C(CN(c1ccccc1)c1ccccc1)Oc1c(Cl)cc(Cl)cc1Cl)n1cnc2ccccc21`, the TGI is reported as over 100 µM.
Compound `COC(=O)c1sc2ncc3c(c2c1N)CC(C)CC3` (stereo not given) has a TGI of over 100 µM.
`Cc1cccc(NC(Nc2cccc(C)c2)=C(C(Cl)=C(Cl)Cl)[N+](=O)[O-])c1` was tested, and the TGI was over 59 µM.
Work on `CC1=CCC[C@H]2[C@](C)(CC3=CC(=O)C4SCCSC4C3=O)[C@@H](C)CC[C@]12C` (stereo not given in full) yielded a TGI of 54.4 µM.
With `C/C(=N\Nc1nc2ccccc2s1)c1cccnn1` the TGI was 33.5 µM.
Compound `COC(=O)C1=C(C(=O)OC)C2(C)CCC(=O)C1O2` (stereo not given) has a TGI of over 10 µM.
`Nc1n[nH]c2ccccc12` gave a TGI of over 100 µM.
Work on `COC(=O)[C@H]1C=C[C@H](OC2OC(COC(C)=O)C(OC(C)=O)C(OC(C)=O)C2OC(C)=O)n2c(=O)n(-c3ccccc3)c(=O)n21` (stereo not given in full) yielded a TGI of 7.37 µM.
`N/C(CSCCSC/C(N)=N/O)=N\O` gave a TGI of over 100 µM.

These compounds were tested on HCT-116 colon (assay: DTP human tumour cell line panel, 48 h).
For `CC(O)(C(=O)N(O)c1ccc(Cl)cc1)c1ccc(Cl)cc1` (stereo not given), the TGI was 96.1 µM.
`CC1(C)[C@@H]2C[C@H]1c1cnc(-c3ccccn3)cc1[C@H]2C(O)[C@@H]1c2cc(-c3ccccn3)ncc2[C@H]2C[C@@H]1C2(C)C` (stereo not given in full) gave a TGI of 5.34 µM.
`CC1(C)OC(CCO)CN1C(=O)OCc1ccccc1` (stereo not given) was tested, and the TGI was over 100 µM.
In the case of `COc1ccc(N2C(=O)C3c4[nH]c5ccccc5c4C4C(C)CCCC4C3C2=O)cc1` (stereo not given), the TGI is reported as over 100 µM.
With `O=c1c(Cc2ccccc2)c(-c2ccccc2)[nH]n1C1=NCCN1` the TGI was 66.7 µM.
`CCOC(=O)Cc1nn2c(=O)cc(C)nc2s1` gave a TGI of over 100 µM.
`CCOC1NC(=O)c2ccccc21` (stereo not given) gave a TGI of over 100 µM.
For `CCN(C(=O)N[C@H](C(=O)N[C@@H](C)C(=O)OC)C(C)C)c1ccccc1`, the TGI was 68.6 µM.
`CCOC(=O)c1ccc(C(=O)/C(C(=O)OC(C)(C)C)=C2\CCCN2C)n1C` was tested, and the TGI was over 100 µM.
In the case of `O=CN(O)CC(=O)O`, the TGI is reported as over 100 µM.
Compound `OCC1OC(O[C@H]2CN3[C@H](O)[C@@H](O)[C@H](O)[C@H]3C2O)C(O)C(O)C1O` (stereo not given in full) has a TGI of over 100 µM.
In the case of `CC1OC(n2cc(F)c(=O)[nH]c2=O)C(O[Si](C)(C)C(C)(C)C)C1O[Si](C)(C)C(C)(C)C` (stereo not given), the TGI is reported as 26.8 µM.
Work on `O=S1(=O)c2ccccc2NC(=S)N1c1ccccc1` yielded a TGI of over 100 µM.
For `COC(=O)C(CCSC)NC(=O)CSc1nnc(COc2ccc(Cl)cc2)n1-c1ccccc1` (stereo not given), the TGI was 30.7 µM.
`c1ccc(-c2ccc(N=NN3CCCC3)cc2)cc1` was tested, and the TGI was over 100 µM.
In the case of `COn1cc(CO)c2ccccc21`, the TGI is reported as over 100 µM.
With `COc1cc2nc(-c3c(F)cccc3F)n(Cc3c(F)cccc3F)c2cc1Cc1c(F)cccc1F` the TGI was over 100 µM.
Compound `O=C(/C=C1\C[C@H]2C=Nc3ccccc3C(=O)N2C1)NCCCCCNC(=O)/C=C1\C[C@H]2C=Nc3ccccc3C(=O)N2C1` has a TGI of 20.1 µM.
`CC[P+](C#Cc1ccccc1)(c1ccccc1)c1ccccc1` gave a TGI of 5.86 µM.
For `CC(C)Cc1c(C#N)c(C#N)c(N)n1Cc1ccccc1`, the TGI was over 100 µM.
For `NS(=O)(=O)c1nnc(NSc2ccc([N+](=O)[O-])cc2)s1`, the TGI was over 100 µM.
`CC(C)(C)c1ccc2c(c1)OCc1n[nH]c(n1)COc1cc(C(C)(C)C)ccc1OCCOCCO2` showed a TGI of 15.5 µM.
For `O=C(CN=C(CN(c1ccccc1)c1ccccc1)Oc1c(Cl)cc(Cl)cc1Cl)n1cnc2ccccc21`, the TGI was over 100 µM.
`COC(=O)c1sc2ncc3c(c2c1N)CC(C)CC3` (stereo not given) gave a TGI of over 100 µM.
Work on `Cc1cccc(NC(Nc2cccc(C)c2)=C(C(Cl)=C(Cl)Cl)[N+](=O)[O-])c1` yielded a TGI of over 46.4 µM.
Compound `CC1=CCC[C@H]2[C@](C)(CC3=CC(=O)C4SCCSC4C3=O)[C@@H](C)CC[C@]12C` (stereo not given in full) has a TGI of 31 µM.
`C/C(=N\Nc1nc2ccccc2s1)c1cccnn1` was tested, and the TGI was 25.5 µM.
With `COC(=O)C1=C(C(=O)OC)C2(C)CCC(=O)C1O2` (stereo not given) the TGI was over 10 µM.
Compound `Nc1n[nH]c2ccccc12` has a TGI of over 100 µM.
`COC(=O)[C@H]1C=C[C@H](OC2OC(COC(C)=O)C(OC(C)=O)C(OC(C)=O)C2OC(C)=O)n2c(=O)n(-c3ccccc3)c(=O)n21` (stereo not given in full) was tested, and the TGI was over 30.5 µM.
`N/C(CSCCSC/C(N)=N/O)=N\O` showed a TGI of over 100 µM.

The compounds below were run on M14 melanoma (assay: DTP human tumour cell line panel, 48 h).
In the case of `CC(O)(C(=O)N(O)c1ccc(Cl)cc1)c1ccc(Cl)cc1` (stereo not given), the TGI is reported as over 100 µM.
For `CC1(C)[C@@H]2C[C@H]1c1cnc(-c3ccccn3)cc1[C@H]2C(O)[C@@H]1c2cc(-c3ccccn3)ncc2[C@H]2C[C@@H]1C2(C)C` (stereo not given in full), the TGI was 1.85 µM.
`CC1(C)OC(CCO)CN1C(=O)OCc1ccccc1` (stereo not given) showed a TGI of over 100 µM.
`COc1ccc(N2C(=O)C3c4[nH]c5ccccc5c4C4C(C)CCCC4C3C2=O)cc1` (stereo not given) showed a TGI of over 100 µM.
`O=c1c(Cc2ccccc2)c(-c2ccccc2)[nH]n1C1=NCCN1` was tested, and the TGI was over 100 µM.
`CCOC(=O)Cc1nn2c(=O)cc(C)nc2s1` showed a TGI of over 100 µM.
In the case of `CCOC1NC(=O)c2ccccc21` (stereo not given), the TGI is reported as over 100 µM.
Work on `CCN(C(=O)N[C@H](C(=O)N[C@@H](C)C(=O)OC)C(C)C)c1ccccc1` yielded a TGI of over 100 µM.
Compound `CCOC(=O)c1ccc(C(=O)/C(C(=O)OC(C)(C)C)=C2\CCCN2C)n1C` has a TGI of over 100 µM.
`O=CN(O)CC(=O)O` showed a TGI of over 100 µM.
For `OCC1OC(O[C@H]2CN3[C@H](O)[C@@H](O)[C@H](O)[C@H]3C2O)C(O)C(O)C1O` (stereo not given in full), the TGI was over 100 µM.
For `CC1OC(n2cc(F)c(=O)[nH]c2=O)C(O[Si](C)(C)C(C)(C)C)C1O[Si](C)(C)C(C)(C)C` (stereo not given), the TGI was 45 µM.
For `O=S1(=O)c2ccccc2NC(=S)N1c1ccccc1`, the TGI was over 100 µM.
Work on `COC(=O)C(CCSC)NC(=O)CSc1nnc(COc2ccc(Cl)cc2)n1-c1ccccc1` (stereo not given) yielded a TGI of 33.5 µM.
`c1ccc(-c2ccc(N=NN3CCCC3)cc2)cc1` gave a TGI of over 100 µM.

Source: PubChem BioAssay (NCI)
